Conditions: about 8 mg of LANE, end of test, filter wash
Description: The apparatus is consisting of an upper part, the donor chamber, and a lower part, the receiving chamber, held together by means of a metal clamp, but separated by a glass microfiber filter, used as a diffusion membrane, and placed horizontally in contact with the dissolution medium. The receiving chamber contains a magnetic stirrer.
The dissolution medium used for the analysis is phosphate buffered saline (PBS), prepared weighing 8 g of NaCl, 0.2 g of KCl, 1.44 g of Na2HPO4, and 0.12 g of KH2PO4 dissolved in 1 L of distilled water, with a final pH of 7.4. During the analysis, RespiCell™ was thermostated (Lauda eco silver E4, DE) at 37±0.5° C.
The receiving chamber was filled with PBS and sampled at pre-established time intervals through the side arm of the cell. Before the analysis 1 mL of the dissolution medium was applied on the filter, to get it completely wet.
To assess the not dissolved or trapped in the filter drug amount, the not dissolved residual powder was recovered washing the filter with 5 mL of a methanol:water 75:25 v/v mixture, at the end of the experiment. The drug amount in the samples was quantified by HPLC analysis.

CCN(CC)CC(=O)Nc1c(C)cccc1C [Lidocaine powder raw material, lidocaine]
Lidocaine retained on and inside the filter: 0.1 ± 0.0 mg
